In patent US10202388B2, “Fused-ring compounds, pharmaceutical composition and uses thereof” (SHANGHAI DE NOVO PHARMATECH CO., LTD., priority 2015, dated 2019):

Experiments:
Human recombinant IDO1 = Human recombinant IDO1 (Homo sapiens (Human), UniProt P14902); test: IDO1 enzymatic assay (UV absorption at 321 nm); assay type: biochemical; conditions: human recombinant IDO1, 80 min incubation, room temperature; read-out: hIDO1 IC50
Method: The detailed experimental method is as follow:
The compounds described in this disclosure were dissolved in 10% DMSO to predefined concentration. All of the reactions were conducted at room temperature in this disclosure. Human recombinant IDO1 (BPS Bioscience) was added so that its concentration was 200 nm in the reaction buffer solution (200 μL). […] 10 μL test compound solution was added into the above reaction solution (200 μL), so that the final concentration of DMSO in all reaction wells was 0.5%. % concentration was volume %. After 80 min incubation of the reaction solution, the UV absorbance was measured using TECAN Infinite M1000 plate reader. For the negative control (blank), 10 μl of the assay buffer was added instead of the IDO1
All reagents (excluding human recombinant IDO1) were purchased from Sigma Aldrich, MO, USA.
The percent activity in the presence of each compound was calculated according to the following equation: % activity=[(A−Ab)/(At−Ab)]×100, where A=the absorption signal in the presence of the compound, Ab=the absorption signal of blank, At=the absorption signal in the absence of the compound. […] The IC50 was calculated using non-linear regression in Graph Pad Prism® 4.

HeLa cell IDO1 = HeLa cell IDO1 (Homo sapiens (Human), UniProt P14902); test: HeLa cell based IDO1 inhibition assay (kynurenine readout, IFN-γ induced); conditions: HeLa cells
Chain of HeLa cell IDO1 (P14902 whole entry): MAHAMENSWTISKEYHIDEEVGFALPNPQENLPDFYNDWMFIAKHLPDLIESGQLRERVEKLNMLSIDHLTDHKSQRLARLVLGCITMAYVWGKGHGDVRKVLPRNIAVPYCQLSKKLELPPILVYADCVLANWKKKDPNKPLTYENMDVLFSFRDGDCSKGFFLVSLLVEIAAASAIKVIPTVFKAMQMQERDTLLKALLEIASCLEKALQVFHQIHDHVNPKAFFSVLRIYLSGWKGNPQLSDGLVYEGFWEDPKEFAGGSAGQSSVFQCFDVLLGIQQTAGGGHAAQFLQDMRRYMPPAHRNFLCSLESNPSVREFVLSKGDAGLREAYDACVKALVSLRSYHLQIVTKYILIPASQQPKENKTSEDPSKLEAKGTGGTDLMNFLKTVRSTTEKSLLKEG
Method: HeLa cell line was purchased from ATCC, cultured in MEM/EBSS medium supplemented with 10% FBS, penn-step (100,000 U/L), non-essential amino acid (0.1 Mm), sodium pyruvate (1.0 Mm). Cells were cultured at 37° C., 95% humidity and 5% CO2. […] The detailed experimental method is as follow:
25,000 HeLa cells were placed on 96-well plates. Each well contained 100 μl culture medium, subsequently IFN-γ and test compounds at specific concentrations (concentration range between 10 μM and 1 Nm, so that the final volume of culture medium was 200 μL) were added and IFN-γ was used to induce IDO1 expression. After incubation, 140 μL supernatant was transferred to 96-well plates. After adding 6.1 N TCA (10 μL), the plates were continuously incubated at 50° C. for 30 min, to hydrolyze N-formylkynurenine produced by IDO to kynurenine. The reaction solution was then centrifuged at 2500 rpm for 10 min to remove precipitate. 100 μL/well supernatant was then transferred to another 96-well plate. 100 μL of 2% (w/v) 4-N,N-dimethyl aminobenzaldehyde acetic acid solution was added and incubated at room temperature for 10 min. The yellow color derived from kynurenine was recorded by measuring absorbance at 480 nm using a microplate reader (TECAN Infinite M1000 Pro).

HeLa cell based IDO1 = HeLa cell based IDO1 (Homo sapiens (Human), UniProt P14902); test: Three-point IDO1 cellular assay (HeLa, 10, 100 and 1000 nM); conditions: HeLa cells, 100 ng/mL IFN-γ, 18 hours; for inhibition at 1 µM: at 1000 nM
Chain of HeLa cell based IDO1 (P14902 whole entry): as above
Method: To perform the 3-point HeLa cell based IDO1 assay, HeLa cells were seeded at 25,000 cells per well into 96-well microplate in 100 μL of growth medium. Cells were incubated at 37° C. and 5% CO2 overnight. The next day 100 μL per well of diluted inhibitor in growth medium at 10, 100 and 1000 nM, respectively, was added at a final concentration of 100 ng/ML human IFN-γ. Cells were incubated at 37° C. in a CO2 incubator for 18 hours. […] The plate was incubated at 50° C. for 30 min to hydrolyze N-formylkynurenine produced by IDO1 to kynurenine. The plate was then centrifuged at 2500 rpm for 10 min to remove sediments. 100 μl of supernatant per well was transferred to another 96-well plate and mixed with 100 μL of 2% (w/v) 4-(Dimethylamino) benzaldehyde in acetic acid. The plate was incubated at room temperature for 10 minutes, the yellow color derived from kynurenine was recorded by measuring absorbance at 480 nm using a microplate reader (TECAN Infinite M1000 Pro). Cell based assays were performed in triplicate at each concentration. The absorbance data were analyzed using the computer software, Graphpad Prism. In the absence of the compound and presence of 100 ng/ML IFN-γ, the absorbance (At) in each data set was defined as 100%. The absorbance of medium blank (Ab) in each data set was defined as 0%. The percent absorbance in the presence of each compound was calculated according to the following equation: % Absorbance=(A−Ab)/(At−Ab), where A=the absorbance in the presence of the compound and IFN-γ, Ab=the absorbance of medium blank, and At=the absorbance in the absence of the compounds and presence of IFN-γ. The values of % absorbance versus the compound concentrations were then determined.

Chain of Human recombinant IDO1 (P14902 whole entry): as above

| Structure (SMILES) | IC50 (HeLa cell IDO1) [nM] | other results |
| --- | --- | --- |
| O=C(C[C@H]1c2ccccc2-c2cncn21)C12CC3CC(CC(C3)C1)C2 (single isomer, unassigned) [Compound 1-1] | – | IC50 (Human recombinant IDO1): 1000 to 10000 nM |
| O=C(C[C@@H]1c2ccccc2-c2cncn21)C12CC3CC(CC(C3)C1)C2 (single isomer, unassigned) [Compound 1-4] | – | IC50 (Human recombinant IDO1): 1000 to 10000 nM |
| O=S(=O)(CC1CCC1)NC1C2CC3CC1CC(C(O)CC1c4c(F)cccc4-c4cncn41)(C3)C2 (single isomer, unassigned) [Compound 67B] | < 100 | – |
| OC(CC1c2ccccc2-c2cncn21)C12CC3CC(C1)C(Nc1nc4ccccc4s1)C(C3)C2 (single isomer, unassigned) [Compound 125A] | < 100 | – |
| OC(CC1c2ccccc2-c2cncn21)C12CC3CC(C1)C(Nc1nc4ccccc4s1)C(C3)C2 (single isomer, unassigned) [Compound 125B] | < 100 | – |
| N#Cc1ccc(S(=O)(=O)NC23CC4CC(C2)C(C(O)CC2c5ccccc5-c5cncn52)C(C4)C3)cc1 (single isomer, unassigned) [Compound 165A] | < 100 | – |
| N#Cc1ccc(S(=O)(=O)NC23CC4CC(C2)C(C(O)CC2c5ccccc5-c5cncn52)C(C4)C3)cc1 (single isomer, unassigned) [Compound 165B] | 500 to 1000 | – |
| CS(=O)(=O)NC12CC3CC(C1)C(C(O)CC1c4ccccc4-c4cncn41)C(C3)C2 (single isomer, unassigned) [Compound 168A] | < 100 | – |
| CS(=O)(=O)NC12CC3CC(C1)C(C(O)CC1c4ccccc4-c4cncn41)C(C3)C2 (single isomer, unassigned) [Compound 168B] | 1000 to 10000 | – |
| OC1C2CC3CC1CC(C(O)CC1c4ccccc4-c4cncn41)(C3)C2 (stereo not shown) [Compound 10A-3] | – | IC50 (Human recombinant IDO1): 1000 to 10000 nM |
| OC1C2CC3CC1CC([C@@H](O)CC1c4ccccc4-c4cncn41)(C3)C2 (stereo partly shown) [Compound 10B] | – | IC50 (Human recombinant IDO1): 100 to 500 nM |
| CC1(O)C2CC3CC1CC(C(O)CC1c4ccccc4-c4cncn41)(C3)C2 (stereo not shown) [Compound 11A] | < 100 | – |
| CC1(O)C2CC3CC1CC([C@@H](O)CC1c4ccccc4-c4cncn41)(C3)C2 (stereo partly shown) [Compound 14A-1] | – | IC50 (Human recombinant IDO1): 1000 to 10000 nM |
| OC1C2CC3CC1CC([C@H](O)CC1c4c(F)cccc4-c4cncn41)(C3)C2 (stereo partly shown) [Compound 23A-2] | – | IC50 (Human recombinant IDO1): 1000 to 10000 nM |
| OC1C2CC3CC1CC([C@@H](O)CC1c4c(F)cccc4-c4cncn41)(C3)C2 (stereo partly shown) [Compound 23A-4] | – | IC50 (Human recombinant IDO1): 1000 to 10000 nM |
| OC1C2CC3CC1CC([C@@H](O)CC1c4c(F)cccc4-c4cncn41)(C3)C2 (stereo partly shown) [Compound 26A-2] | – | IC50 (Human recombinant IDO1): 1000 to 10000 nM |
| OC1C2CC3CC1CC([C@@H](O)CC1c4c(F)cccc4-c4cncn41)(C3)C2 (stereo partly shown) [Compound 26B] | – | IC50 (Human recombinant IDO1): 100 to 500 nM |
| OC(Cn1c2ccccc2n2cncc12)C12CC3CC(CC(C3)C1)C2 (stereo not shown) [Compound 40] | – | IC50 (Human recombinant IDO1): 1000 to 10000 nM |
| CS(=O)(=O)Nc1ccc(S(=O)(=O)NC2C3CC4CC2CC(C(O)CC2c5c(F)cccc5-c5cncn52)(C4)C3)cc1 (stereo not shown) [Compound 87] | 500 to 1000 | – |
| OC(CC1c2ccccc2-c2cncn21)C12CC3CC(C1)C(Nc1nc4ccccc4o1)C(C3)C2 (stereo not shown) [Compound 123] | < 100 | – |
| O=C(Nc1ccccc1)NC12CC3CC(C1)C(C(O)CC1c4ccccc4-c4cncn41)C(C3)C2 (stereo not shown) [Compound 162A] | 100 to 500 | – |
| CCS(=O)(=O)NC12CC3CC(C1)C(C(O)CC1c4ccccc4-c4cncn41)C(C3)C2 (stereo not shown) [Compound 167A] | 100 to 500 | – |
| Cc1ccc(CC(=O)NC23CC4CC(C2)C(C(O)CC2c5c(F)cccc5-c5cncn52)C(C4)C3)cc1 (stereo not shown) [Compound 193A] | – | inhibition at 0.1 µM (HeLa cell based IDO1; at 100 nM): > 50% |
| CC(=O)Nc1ccc(S(=O)(=O)NC23CC4CC(C2)C(C(O)CC2c5ccccc5-c5cncn52)C(C4)C3)cc1 (stereo not shown) [Compound 201A] | – | inhibition at 1 µM (HeLa cell based IDO1): > 50% |
| O=S(=O)(Cc1ccccc1)N1C2CC3CC1CC(C(O)CC1c4c(F)cccc4-c4cncn41)(C3)C2 (stereo not shown) [Compound 205] | – | inhibition at 1 µM (HeLa cell based IDO1): > 50% |
| O=S(=O)(c1ccccc1)N1C2CC3CC1CC(C(O)CC1c4c(F)cccc4-c4cncn41)(C3)C2 (stereo not shown) [Compound 206] | – | inhibition at 1 µM (HeLa cell based IDO1): > 50% |
| O=C(Cc1ccc(F)cc1)N1C2CC3CC1CC(C(O)CC1c4c(F)cccc4-c4cncn41)(C3)C2 (stereo not shown) [Compound 207] | – | inhibition at 1 µM (HeLa cell based IDO1): > 50% |
| OC(CC1c2c(F)cccc2-c2cncn21)C12CC3CC(C1)N(c1ncc(-c4ccccc4)o1)C(C3)C2 (stereo not shown) [Compound 210] | – | inhibition at 1 µM (HeLa cell based IDO1): > 50% |
| OC(CC1c2cccnc2-c2cncn21)C1CCCCC1 (stereo not shown) [compound 2] | – | IC50 (Human recombinant IDO1): 1000 to 10000 nM |

Continued, in another order:

| IC50 (HeLa cell IDO1) [nM] | Structure (SMILES) | other results |
| --- | --- | --- |
| < 100 | O=S(=O)(NC1C2CC3CC1CC(C(O)CC1c4c(F)cccc4-c4cncn41)(C3)C2)c1ccccc1 (single isomer, unassigned) [Compound 47A] | – |
| < 100 | O=S(=O)(NC1C2CC3CC1CC(C(O)CC1c4c(F)cccc4-c4cncn41)(C3)C2)c1ccccc1 (single isomer, unassigned) [Compound 47B] | – |
| < 100 | O=C(Nc1ccccc1)NC1C2CC3CC1CC(C(O)CC1c4c(F)cccc4-c4cncn41)(C3)C2 (single isomer, unassigned) [Compound 55A] | – |
| 100 to 500 | O=C(Nc1ccccc1)NC1C2CC3CC1CC(C(O)CC1c4c(F)cccc4-c4cncn41)(C3)C2 (single isomer, unassigned) [Compound 55B] | – |
| < 100 | N#Cc1ccc(S(=O)(=O)NC2C3CC4CC2CC(C(O)CC2c5c(F)cccc5-c5cncn52)(C4)C3)cc1 (single isomer, unassigned) [Compound 69A] | – |
| 500 to 1000 | N#Cc1ccc(S(=O)(=O)NC2C3CC4CC2CC(C(O)CC2c5c(F)cccc5-c5cncn52)(C4)C3)cc1 (single isomer, unassigned) [Compound 69B] | – |
| < 100 | CCS(=O)(=O)NC1C2CC3CC1CC(C(O)CC1c4c(F)cccc4-c4cncn41)(C3)C2 (stereo not shown) [Compound 66] | – |
| < 100 | O=S(=O)(Cc1ccc(F)cc1)NC1C2CC3CC1CC(C(O)CC1c4c(F)cccc4-c4cncn41)(C3)C2 (stereo not shown) [Compound 71] | – |
| < 100 | O=S(=O)(NC1C2CC3CC1CC(C(O)CC1c4c(F)cccc4-c4cncn41)(C3)C2)C1CC1 (stereo not shown) [Compound 81A] | – |
| < 100 | O=C(Nc1ccc(F)cc1)NC1C2CC3CC1CC(C(O)CC1c4c(F)cccc4-c4cncn41)(C3)C2 (stereo not shown) [Compound 93A] | – |
| < 100 | Cc1ccc(NC(=O)NC2C3CC4CC2CC(C(O)CC2c5c(F)cccc5-c5cncn52)(C4)C3)cc1 (stereo not shown) [Compound 97] | – |
| < 100 | N#Cc1ccc(NC(=O)NC2C3CC4CC2CC(C(O)CC2c5c(F)cccc5-c5cncn52)(C4)C3)cc1 (stereo not shown) [Compound 100] | – |
| 100 to 500 | CS(=O)(=O)c1ccc(NC(=O)NC2C3CC4CC2CC(C(O)CC2c5c(F)cccc5-c5cncn52)(C4)C3)cc1 (stereo not shown) [Compound 101] | – |
| 1000 to 10000 | CC(=O)Nc1ccc(NC(=O)NC2C3CC4CC2CC(C(O)CC2c5ccccc5-c5cncn52)(C4)C3)cc1 (stereo not shown) [Compound 102] | – |
| < 100 | O=C(Nc1ccc(F)c(F)c1)NC1C2CC3CC1CC(C(O)CC1c4c(F)cccc4-c4cncn41)(C3)C2 (stereo not shown) [Compound 108A] | – |
| < 100 | OC(CC1c2c(F)cccc2-c2cncn21)C12CC3CC(C1)C(Nc1nc4ccccc4o1)C(C3)C2 (stereo not shown) [Compound 124A] | – |
| < 100 | O=C(Nc1ccccc1)N1C2CC3CC1CC(C(O)CC1c4c(F)cccc4-c4cncn41)(C3)C2 (stereo not shown) [Compound 208] | – |
